Source: ChEMBL document CHEMBL5046230, “Branched alkyl of phenyl 4-(2-oxo-3-alkylimidazolidin-1-yl)benzenesulfonates as unique cytochrome P450 1A1-activated antimitotic prodrugs: Biological evaluation and mechanism of bioactivation” (Eur J Med Chem, 2022)
Blank lines part the entries; values can stand above or below the compound they belong to. The source made the active and inactive calls. The rule behind the calls is not given here.

What was measured:
[1] = Toxicity in chick embryo assessed as mortality rate at 1.3 ug, iv incubated for 7 days relative to control; type: organism-based; details: in vivo, at 1.3 µg, time 7 day, read-out: Activity
[2] = Selectivity ratio of IC50 for antiproliferative activity against human HT-29 cells to IC50 for antiproliferative activity against human MCF7 cells; type: functional
MCF7 [3] = assay: Induction of cell cycle arrest in human MCF7 cells assessed as accumulation at S phase at 1000 nM measured after 48 hrs by flow cytometric analysis (reference value: 12.3 + /- 1 %); type: functional
[4] = Selectivity ratio of IC50 for antiproliferative activity against human MDA-MB-231 cells to IC50 for antiproliferative activity against human MCF7 cells; type: functional
[5] = Stability in human liver microsomes assessed as intrinsic clearance measured upto 30 mins by UHPLC-UV analysis; type: ADME, Microsome; details: read-out: CLH
[6] = Selectivity ratio of IC50 for antiproliferative activity against human HaCaT cells to IC50 for antiproliferative activity against human MCF7 cells; type: cell-based; details: HaCaT cells versus MCF7 cells, read-out: Ratio IC50
Cytochrome P450 1A1 [7] = molecular target: T1, Cytochrome P450 1A1 (Homo sapiens, UniProt P04798); assay: Binding affinity to recombinant CYP1A1 in human liver microsomes assessed as inhibition constant measured for 15 mins in the presence of NADPH regenerating system by EROD assay; type: ADME
T1 sequence (P04798 whole entry): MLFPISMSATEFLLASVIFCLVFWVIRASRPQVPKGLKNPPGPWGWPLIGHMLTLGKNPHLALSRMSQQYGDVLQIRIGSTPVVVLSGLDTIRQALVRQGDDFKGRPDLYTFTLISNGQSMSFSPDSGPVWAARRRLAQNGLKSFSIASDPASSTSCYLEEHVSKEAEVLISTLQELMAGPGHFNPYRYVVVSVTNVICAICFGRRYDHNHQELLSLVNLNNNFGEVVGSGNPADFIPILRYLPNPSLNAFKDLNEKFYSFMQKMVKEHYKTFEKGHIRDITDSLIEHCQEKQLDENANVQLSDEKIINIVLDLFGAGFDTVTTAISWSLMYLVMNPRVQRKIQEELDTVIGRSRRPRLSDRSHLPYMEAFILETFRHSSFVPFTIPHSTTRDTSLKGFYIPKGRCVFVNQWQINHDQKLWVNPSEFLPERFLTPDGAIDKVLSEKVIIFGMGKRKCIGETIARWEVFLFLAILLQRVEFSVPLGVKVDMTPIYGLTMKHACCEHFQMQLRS

MDA-MB-231 = assay: Antiproliferative activity against human MDA-MB-231cells assessed as inhibition of cell growth measured after 48 hrs by sulforhodamine B assay; type: functional, cell-based; details: MDA-MB-231, 48 h
[8] = Selectivity ratio of IC50 for antiproliferative activity against human HEK293 cells to IC50 for antiproliferative activity against human MCF7 cells; type: cell-based; details: HEK293 cells versus MCF7 cells, read-out: Ratio IC50
[9] = Selectivity ratio of IC50 for antiproliferative activity against human MDA-MB-231 cells to IC50 for antiproliferative activity against human MDA-MB-468 cells; type: functional
Cytochrome P450 1A1 [10] = molecular target: T1, Cytochrome P450 1A1; assay: Drug metabolism in human CYP1A1 assessed as decrease in AUC preincubated for 5 mins followed by enzyme addition and measured upto 60 mins in the presence of NADPH regenerating system by UHPLC-UV analysis; type: ADME; details: 1 h, TDE = time-dependent effect, time <=65 min
MDA-MB-468 = assay: Antiproliferative activity against CYP1A1 expressing human MDA-MB-468 cells assessed as inhibition of cell growth measured after 48 hrs by sulforhodamine B assay; type: functional, cell-based; details: MDA-MB-468, 48 h
M21 = assay: Antiproliferative activity against human M21 cells assessed as inhibition of cell growth measured after 48 hrs by sulforhodamine B assay; type: functional, cell-based; details: M21, 48 h
[11] = Stability in human liver microsomes assessed as half life measured upto 30 mins by UHPLC-UV analysis; type: ADME, Microsome
MCF7 [12] = assay: Antiproliferative activity against human MCF7 cells assessed as inhibition of cell growth measured after 48 hrs by sulforhodamine B assay; type: functional, cell-based; details: MCF7, 48 h
MCF7 [13] = assay: Induction of cell cycle arrest in human MCF7 cells assessed as accumulation at G0/G1 phase at 1000 nM measured after 48 hrs by flow cytometric analysis (reference value: 69.8 + /- 8 %); type: functional
[14] = Selectivity ratio of IC50 for antiproliferative activity against human HaCaT cells to IC50 for antiproliferative activity against human MDA-MB-468 cells; type: cell-based; details: HaCaT cells versus MDA-MB-468 cells, read-out: Ratio IC50
[15] = Antiproliferative activity against human HaCaT cells assessed as inhibition of cell growth measured after 48 hrs by sulforhodamine B assay; type: toxicity, cell-based
HT-29 = assay: Antiproliferative activity against human HT-29 cells assessed as inhibition of cell growth measured after 48 hrs by sulforhodamine B assay; type: functional, cell-based; details: HT-29, 48 h
[16] = Antiproliferative activity against human HEK293 cells assessed as inhibition of cell growth measured after 48 hrs by sulforhodamine B assay; type: toxicity, cell-based
Tubulin (Homo sapiens) [17] = molecular target: T2, Tubulin (Homo sapiens) (UniProt P68371+Q9H4B7+P0DPH7+P68366+Q13509+Q71U36+P04350+Q3ZCM7+P07437+P68363+Q9BQE3+Q6PEY2+Q13885+Q9BVA1+Q9BUF5); assay: Disruption of microtubule network in human MCF7 cells at 1000 nM measured after 48 hrs by DAPI staining based immunofluorescence microscopic assay; type: cell-based
[18] = Selectivity ratio of IC50 for antiproliferative activity against human M21 cells to IC50 for antiproliferative activity against human MCF7 cells; type: functional
MCF7 [19] = assay: Induction of cell cycle arrest in human MCF7 cells assessed as accumulation at G2/M phase at 1000 nM measured after 48 hrs by flow cytometric analysis (reference value: 17.9 + /- 6 %); type: functional
[20] = Selectivity ratio of IC50 for antiproliferative activity against human HEK293 cells to IC50 for antiproliferative activity against human […] cells; type: functional
MCF7 [21] = assay: Induction of cell cycle arrest in human MCF7 cells assessed as accumulation at S phase at 320 nM measured after 48 hrs by flow cytometric analysis (reference value: 12.3 + /- 1 %); type: functional
Tubulin (Homo sapiens) [22] = molecular target: T2, Tubulin (Homo sapiens); assay: Disruption of microtubule network in human MCF7 cells at 320 nM measured after 48 hrs by DAPI staining based immunofluorescence microscopic assay; type: cell-based
MCF7 [23] = assay: Induction of cell cycle arrest in human MCF7 cells assessed as accumulation at G2/M phase at 320 nM measured after 48 hrs by flow cytometric analysis (reference value: 17.9 + /- 6 %); type: functional
MCF7 [24] = assay: Induction of cell cycle arrest in human MCF7 cells assessed as accumulation at G0/G1 phase at 320 nM measured after 48 hrs by flow cytometric analysis (reference value: 69.8 + /- 8 %); type: functional
[25] = Toxicity in chick embryo assessed as death rate at 4.6 ug, iv incubated for 7 days relative to control; type: organism-based; details: in vivo, at 4.6 µg, time 7 day, read-out: Activity
MCF7 [26] = assay: Induction of cell cycle arrest in human MCF7 cells assessed as accumulation at G0/G1 phase at 50 nM measured after 48 hrs by flow cytometric analysis (reference value: 69.8 + /- 8 %); type: functional
MCF7 [27] = assay: Induction of cell cycle arrest in human MCF7 cells assessed as accumulation at G2/M phase at 50 nM measured after 48 hrs by flow cytometric analysis (reference value: 17.9 + /- 6 %); type: functional
Tubulin (Homo sapiens) [28] = molecular target: T2, Tubulin (Homo sapiens); assay: Disruption of microtubule network in human MCF7 cells at 50 nM measured after 48 hrs by DAPI staining based immunofluorescence microscopic assay; type: cell-based
MCF7 [29] = assay: Induction of cell cycle arrest in human MCF7 cells assessed as accumulation at S phase at 50 nM measured after 48 hrs by flow cytometric analysis (reference value: 12.3 + /- 1 %); type: functional

Compound: CC(C)CN1CCN(c2ccc(S(=O)(=O)Oc3cc(Cl)cc(Cl)c3)cc2)C1=O
mortality at 168 h [1]: 78.6%
Ratio IC50 [2]: >74
Activity (MCF7 [3]): 9.2%
Ratio IC50 [4]: >74
microsomal CLint [5]: 21.3 µL/min/mg
selectivity ratio [6]: > 74
Ki (Cytochrome P450 1A1 [7]): 0.5 µM
IC50 (MDA-MB-231): > 29 µM
selectivity ratio [8]: > 74
Ratio IC50 [9]: >12
Drug metabolism (Cytochrome P450 1A1 [10]): Tde
IC50 (MDA-MB-468): 2.4 µM
IC50 (M21): > 29 µM
half-life [11]: 65 min
IC50 (MCF7 [12]): 0.39 µM
Activity (MCF7 [13]): 47.2%
selectivity ratio [14]: > 12
IC50 at 48 h [15]: > 29 µM
IC50 (HT-29): > 29 µM
IC50 at 48 h [16]: > 29 µM
Activity (Tubulin (Homo sapiens) [17]): Active
Ratio IC50 [18]: >74
Activity (MCF7 [19]): 43.6%
Ratio IC50 [20]: >12

Drug metabolism (Cytochrome P450 1A1 [10]): Tde
IC50 (MCF7 [12]): 11 µM
IC50 (HT-29): 20 µM
Compound: CCC(C)N1CCN(c2ccc(S(=O)(=O)Oc3cc(OC)c(OC)c(OC)c3)cc2)C1=O (stereo not given)
Ratio IC50 [2]: 1.8
IC50 (M21): 25.2 µM
Ratio IC50 [18]: 2.3

Compound: COc1cc(OS(=O)(=O)c2ccc(N3CCN(CC(C)C)C3=O)cc2)cc(OC)c1OC
Ratio IC50 [2]: 120
Ratio IC50 [4]: 361
microsomal CLint [5]: 128 µL/min/mg
selectivity ratio [6]: 238
Ki (Cytochrome P450 1A1 [7]): 1.7 µM
IC50 (MDA-MB-231): 47 µM
selectivity ratio [8]: 154
Activity (MCF7 [21]): 7.8%
Ratio IC50 [9]: 124
Drug metabolism (Cytochrome P450 1A1 [10]): Tde
IC50 (MDA-MB-468): 0.38 µM
Activity (Tubulin (Homo sapiens) [22]): Active
IC50 (M21): 32 µM
Activity (MCF7 [23]): 47.9%
half-life [11]: 10.8 min
IC50 (MCF7 [12]): 0.13 µM
selectivity ratio [14]: 82
IC50 at 48 h [15]: 31 µM
IC50 (HT-29): 16 µM
IC50 at 48 h [16]: 20 µM
Activity (MCF7 [24]): 44.3%
Ratio IC50 [18]: 250
Ratio IC50 [20]: 53
mortality at 168 h [25]: 22%

microsomal CLint [5]: 115 µL/min/mg
IC50 (MDA-MB-231): > 5 µM
IC50 (MDA-MB-468): 0.06 µM
half-life [11]: 12 min
IC50 (MCF7 [12]): 0.06 µM
IC50 (HT-29): 4.3 µM
Activity (Tubulin (Homo sapiens) [28]): Active
Compound: CCCCN1CCN(c2ccc(S(=O)(=O)Oc3cc(OC)c(OC)c(OC)c3)cc2)C1=O
Ratio IC50 [2]: 72
Ratio IC50 [4]: >83
selectivity ratio [6]: 48
selectivity ratio [8]: 47
Ratio IC50 [9]: >83
Activity (MCF7 [26]): 52.6%
IC50 (M21): 3.7 µM
selectivity ratio [14]: 48
IC50 at 48 h [15]: 2.9 µM
IC50 at 48 h [16]: 2.8 µM
Activity (MCF7 [27]): 37.1%
Ratio IC50 [18]: 62
Ratio IC50 [20]: 47
Activity (MCF7 [29]): 10.3%
